Laboratory results published in US6596863B2, “Medical composition containing nitroetheneamine Derivative or salt there of as active constituent” (Ishihara Sangyo Kaisha, Ltd., priority 1998, dated 2003).
pIC50: −log10 of the molar value. Read-outs that look alike come from different tables or passages of the source.

Tests used:
[1] = target: T1, human MMP-9 (gelatinase B) (Homo sapiens, UniProt P14780); assay: Inhibition activity against human MMP-9 (gelatinase B), fluorescent peptide substrate; type: biochemical; details: compounds of the formula (I)
T1 construct: endogenous in cells; host or cells: HT1080 human fibrosarcoma cells (ATCC CCL-121), PMA-stimulated; enzyme purified from the culture supernatant
Procedure, shortened: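 MMP-9 purified from PMA-stimulated (10 ng/ml) HT1080 supernatant, or commercial enzyme (0.0125-0.025 unit/ml or 0.2 μg/ml final), incubated with compound and 10 μM final Mca-Pro-Leu-Gly-Leu-Dpa-Ala-Arg-NH2 fluorescent substrate at 37 °C for 3 h in the dark. Precursor enzyme activated with APMA.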

[2] = 1st measurement, read-out: MMP-9 inhibition activities IC50, 1st
[3] = 2nd measurement, read-out: MMP-9 inhibition activities IC50, 2nd
[4] = average of 1st and 2nd (or single measurement), read-out: MMP-9 inhibition activities IC50, Average

T1 sequence (P14780 107-707 limits assumed): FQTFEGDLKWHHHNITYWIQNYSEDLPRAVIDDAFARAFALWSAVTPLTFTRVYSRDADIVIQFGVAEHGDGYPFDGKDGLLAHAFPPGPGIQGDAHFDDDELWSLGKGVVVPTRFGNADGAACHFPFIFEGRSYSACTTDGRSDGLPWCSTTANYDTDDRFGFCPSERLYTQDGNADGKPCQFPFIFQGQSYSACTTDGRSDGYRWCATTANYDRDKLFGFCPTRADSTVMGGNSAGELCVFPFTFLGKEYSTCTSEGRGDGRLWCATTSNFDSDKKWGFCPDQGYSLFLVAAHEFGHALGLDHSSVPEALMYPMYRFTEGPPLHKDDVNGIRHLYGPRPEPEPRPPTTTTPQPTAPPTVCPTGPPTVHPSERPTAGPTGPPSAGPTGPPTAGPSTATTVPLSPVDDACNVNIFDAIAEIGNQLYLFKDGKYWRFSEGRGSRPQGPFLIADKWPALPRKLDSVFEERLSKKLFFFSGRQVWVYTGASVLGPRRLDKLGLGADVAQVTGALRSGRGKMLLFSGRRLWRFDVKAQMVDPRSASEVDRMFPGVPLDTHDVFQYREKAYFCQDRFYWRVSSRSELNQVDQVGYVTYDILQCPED

Row | Compound | pIC50 [1, 2] | pIC50 [1, 3] | pIC50 [1, 4] | melting point
1 | NNC(=C[N+](=O)[O-])NCc1ccccc1 [compound 92] | 4.81 | 4.69 | 4.74 | 140 to 143 °C
2 | CNC(=C[N+](=O)[O-])NNc1cc(C(F)(F)F)ccn1 [compound 94] | 5.38 | 5.15 | 5.25 | 174 to 175 °C (dec.)
3 | CNC(=C[N+](=O)[O-])NNc1ccc(OC(F)(F)F)cc1 [compound 95] | 4.57 | 4.57 | 4.57 | 176 to 177 °C (dec.)
4 | CNC(=C[N+](=O)[O-])NNc1ncc(C(F)(F)F)cc1[N+](=O)[O-] [compound 96] | 4.61 | 4.67 | 4.64 | 165 to 167 °C (dec.)
5 | CNC(=C[N+](=O)[O-])NNc1cc(C(F)(F)F)nc(C(F)(F)F)c1 [compound 99] | 4.69 | 4.52 | 4.60 | 180 to 181 °C (dec.)
6 | CNC(=C[N+](=O)[O-])NNc1cc(OC)nc(OC)n1 [compound 101] | 4.42 | 4.73 | 4.55 | 160 to 162 °C (dec.)
7 | CCNC(=C[N+](=O)[O-])NNc1cc(C(F)(F)F)cc(Cl)n1 [compound 102] | 4.74 | 4.85 | 4.79 | 206 °C (dec.)
8 | NC(=C[N+](=O)[O-])NNc1cc(C(F)(F)F)cc(Cl)n1 [compound 103] | 5.05 | 4.97 | 5.01 | 201 to 202 °C (dec.)
9 | CNC(=C[N+](=O)[O-])NNc1nc(OC)nc(OC)n1 [compound 104] | 4.68 | 4.76 | 4.71 | 202 to 203 °C (dec.)
10 | CNC(=C[N+](=O)[O-])NNc1nc(OC)cc(OC)n1 [compound 105] | 4.85 | 4.77 | 4.81 | 166 to 167 °C (dec.)
11 | CCOc1cc(C(F)(F)F)cc(NNC(=C[N+](=O)[O-])NC)n1 [compound 106] | 4.93 | 5.08 | 5.00 | 185 to 186 °C (dec.)
12 | CNC(=C[N+](=O)[O-])NNS(=O)(=O)c1ccccc1 [compound 109] | 4.68 | 4.57 | 4.62 | 169 to 170 °C (dec.)
13 | NNC(=C[N+](=O)[O-])Nc1ccc2c(c1)OCO2 [compound 110] | 4.45 | 4.53 | 4.49 | 177 to 180 °C (dec.)
14 | Cc1nn(C)c(C)c1NC(=C[N+](=O)[O-])NN [compound 111] | 4.34 | 4.57 | 4.44 | 210 to 214 °C (dec.)
15 | NNC(=C[N+](=O)[O-])NC1Cc2ccccc2C1 [compound 112] | 4.42 | 4.51 | 4.46 | 193 to 197 °C (dec.)
16 | COc1ccc(NC(=C[N+](=O)[O-])NN)cn1 [compound 115] | 4.50 | 4.58 | 4.53 | 162 to 165 °C
17 | CCNC(=C[N+](=O)[O-])NN [compound 117] | 4.52 | 4.41 | 4.46 | 93.5 to 98.5 °C
18 | CNC(=C[N+](=O)[O-])NNc1cc(C(F)(F)F)cc(OCCCc2ccccn2)n1 [compound 118] | 4.49 | 4.45 | 4.47 | 169 °C (dec.)
19 | CNC(=C[N+](=O)[O-])NNc1cc(C(F)(F)F)cc(OCCCc2cccnc2)n1 [compound 119] | 4.55 | 4.63 | 4.59 | 149 °C (dec.)
20 | CNC(=C[N+](=O)[O-])NNc1cc(C(F)(F)F)cc(OCc2ccco2)n1 [compound 120] | 4.40 | 4.40 | 4.40 | 154 °C (dec.)
21 | CNC(=C[N+](=O)[O-])NNc1cc(C(F)(F)F)cc(OCc2ccccn2)n1 [compound 122] | 4.90 | 4.79 | 4.84 | 170 °C (dec.)
22 | CNC(=C[N+](=O)[O-])NNc1cc(C(F)(F)F)cc(OCc2cccnc2)n1 [compound 123] | 4.86 | 4.91 | 4.88 | 131 °C (dec.)
23 | CNC(=C[N+](=O)[O-])NNc1cc(C(F)(F)F)cc(OCCc2ccccn2)n1 [compound 124] | 4.79 | 4.73 | 4.76 | 181 °C (dec.)
24 | CNC(=C[N+](=O)[O-])NNc1cc(C(F)(F)F)cc(SC)n1 [compound 125] | 5.00 | 4.80 | 4.89 | 192 °C (dec.)
25 | CNC(=C[N+](=O)[O-])NNc1cc(C(F)(F)F)cc(Oc2ccccc2)n1 [compound 126] | 4.53 | 4.66 | 4.59 | 141 °C (dec.)
26 | CNC(=C[N+](=O)[O-])NNc1ccc2ccccc2n1 [compound 127] | 5.85 | 5.55 | 5.68 | 202 °C (dec.)
27 | CNC(=C[N+](=O)[O-])NN=Cc1ccc([N+](=O)[O-])cc1 [compound 138] | 4.65 | 4.80 | 4.72 | 232 °C (dec.)

Next, values leading:

Row | pIC50 [1, 2] | pIC50 [1, 3] | pIC50 [1, 4] | melting point | Compound
28 | 4.72 | 4.99 | 4.89 | 93 to 95 °C | CNC(=C[N+](=O)[O-])NNc1cc(C(F)(F)F)cc(OCC2CCCCO2)n1 (centres unmarked) [compound 128]
29 | 4.93 | 5.17 | 5.03 | 97 to 99 °C | CNC(=C[N+](=O)[O-])NNc1cc(C(F)(F)F)cc(OCC2CCCO2)n1 (centres unmarked) [compound 129]
30 | 5.11 | 5.08 | 5.09 | 175 °C (dec.) | C=CCOc1cc(C(F)(F)F)cc(NNC(=C[N+](=O)[O-])NC)n1 [compound 130]
31 | 5.70 | 5.52 | 5.60 | 165 °C (dec.) | CNC(=C[N+](=O)[O-])NNc1cc(C(F)(F)F)cc(C)n1 [compound 131]
32 | 5.92 | 5.62 | 5.74 | 158 °C (dec.) | CNC(=C[N+](=O)[O-])NNc1nc2ccccc2s1 [compound 132]
33 | 4.55 | 4.69 | 4.61 | 190 °C (dec.) | CNC(=C[N+](=O)[O-])NN=Cc1ccc2ccccc2c1 [compound 135]
34 | 4.67 | 4.53 | 4.60 | 186 °C (dec.) | CNC(=C[N+](=O)[O-])NN=Cc1ccc(Cl)cc1 [compound 136]
35 | 4.75 | 4.43 | 4.56 | 172 °C (dec.) | CNC(=C[N+](=O)[O-])NN=Cc1ccc(C)cc1 [compound 137]
36 | 4.65 | 4.66 | 4.65 | 180 °C (dec.) | CNC(=C[N+](=O)[O-])NN=Cc1ccc2c(c1)OCO2 [compound 140]
37 | 4.70 | 4.74 | 4.72 | 179 °C (dec.) | CNC(=C[N+](=O)[O-])NN=Cc1ccc2c(c1)OCCO2 [compound 141]
38 | 4.69 | 4.65 | 4.67 | 210 °C (dec.) | CNC(=C[N+](=O)[O-])NN=Cc1ccc(C(=O)O)cc1 [compound 142]
